Patent US6127136A, “Detection of dioxin-like compounds by detection of transformed Ah receptor/ARNT complex” (Paracelsian, Inc., priority 1996, dated 2000)
Values joined by “and” are separate entries in the source; they are usually repeats but may differ in a detail not shown here. Equal values may be shown once.

Legend:
[1] = test system: transformed AhR/ARNT complex; assay: size exclusion of biotin-DRE/AhR/ARNT/anti-ARNT complex followed by capture on neutravidin ELISA plates; format: biochemical, guinea pig (hepatic cytosol); details: FIG. 5, OD at 405 nm
Description: Size-exclusion of biotin-DRE/AhR/ARNT/anti-ARNT complex followed by capture on neutravidin ELISA plates and detection with anti-rabbit/alkaline phosphatase conjugate.
Diethanolamine buffer was prepared by dissolving 0.4 g Magnesium chloride hexahydrate, 0.8 g sodium azide, 338 mL diethanolamine in 2.5 L deionized water, adjusting pH to 9.8 with concentrated HCl, and adjusting volume to 4 liters.
PNPP stock was prepared fresh by dissoving two 15 mg tablets of para-nitro phenyl phosphate (Sigma, St. Louis, Mo.) in 20 mL diethanolamine buffer.
The same size exclusion column operating conditions were used as described above, except the DRE used was B-ERD oligo (SEQ. ID. #3) and DRE-D oligo (SEQ. ID #1)hybridized as described in methods. […]
Samples were incubated for 2 hours at room temperature as described above to achieve transformation/binding events then put on ice. […] The plate was incubated 2 hours, washed 3 times with 300 uL per well PBS plus 0.02% Tween 20, incubated 1 hour with 200 uL per well 1:1000 anti-rabbit/alkaline phosphatase conjugate in PBS plus 0.02% Tween 20 and 0.1% bovine serum albumin, washed 3 times with 300 uL per well PBS plus Tween 20 and developed 2 hours with 200 uL per well PnPP stock, and the optical density read at 405 nm in an ELISA spectrophotometer.

[2] = target: transformed Ah receptor/ARNT complex (Cavia porcellus, UniProt Q6J287); assay: mini-Ah immunoassay with anti-ARNT detection of transformed Ah receptor/ARNT complex; format: biochemical, guinea pig (male Hartley, hepatic cytosol); design: AHR/ARNT heterodimer on DRE gel, anti-ARNT detection; in some samples recombinant baculovirus ARNT (Bradfield) added; details: for density, average / density: TCDD (+); for density: single replicate
Sequence of transformed Ah receptor/ARNT complex (Q6J287 10-846): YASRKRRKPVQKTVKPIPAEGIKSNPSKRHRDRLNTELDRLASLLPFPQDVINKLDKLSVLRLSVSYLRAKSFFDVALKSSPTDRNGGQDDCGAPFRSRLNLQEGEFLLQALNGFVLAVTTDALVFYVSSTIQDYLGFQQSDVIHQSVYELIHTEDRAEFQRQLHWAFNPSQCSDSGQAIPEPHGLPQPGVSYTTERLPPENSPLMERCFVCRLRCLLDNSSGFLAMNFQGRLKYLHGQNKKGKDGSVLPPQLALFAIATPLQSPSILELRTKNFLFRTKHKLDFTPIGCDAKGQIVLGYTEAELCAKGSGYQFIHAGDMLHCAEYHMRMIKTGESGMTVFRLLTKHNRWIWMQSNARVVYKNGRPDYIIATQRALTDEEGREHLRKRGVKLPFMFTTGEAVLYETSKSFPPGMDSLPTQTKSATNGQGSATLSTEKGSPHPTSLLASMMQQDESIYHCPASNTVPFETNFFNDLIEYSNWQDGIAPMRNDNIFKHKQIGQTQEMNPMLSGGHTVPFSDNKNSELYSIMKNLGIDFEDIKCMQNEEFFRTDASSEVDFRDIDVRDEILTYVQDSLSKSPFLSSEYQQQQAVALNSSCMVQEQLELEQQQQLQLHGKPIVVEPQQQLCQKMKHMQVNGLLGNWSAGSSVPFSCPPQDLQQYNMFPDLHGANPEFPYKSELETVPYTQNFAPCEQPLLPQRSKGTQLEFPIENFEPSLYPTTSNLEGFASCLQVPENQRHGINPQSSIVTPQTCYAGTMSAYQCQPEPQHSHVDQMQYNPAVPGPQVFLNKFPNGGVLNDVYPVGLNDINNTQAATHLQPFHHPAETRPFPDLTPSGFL
Sequence of transformed Ah receptor/ARNT complex (Q0WXX3 1-790 partner): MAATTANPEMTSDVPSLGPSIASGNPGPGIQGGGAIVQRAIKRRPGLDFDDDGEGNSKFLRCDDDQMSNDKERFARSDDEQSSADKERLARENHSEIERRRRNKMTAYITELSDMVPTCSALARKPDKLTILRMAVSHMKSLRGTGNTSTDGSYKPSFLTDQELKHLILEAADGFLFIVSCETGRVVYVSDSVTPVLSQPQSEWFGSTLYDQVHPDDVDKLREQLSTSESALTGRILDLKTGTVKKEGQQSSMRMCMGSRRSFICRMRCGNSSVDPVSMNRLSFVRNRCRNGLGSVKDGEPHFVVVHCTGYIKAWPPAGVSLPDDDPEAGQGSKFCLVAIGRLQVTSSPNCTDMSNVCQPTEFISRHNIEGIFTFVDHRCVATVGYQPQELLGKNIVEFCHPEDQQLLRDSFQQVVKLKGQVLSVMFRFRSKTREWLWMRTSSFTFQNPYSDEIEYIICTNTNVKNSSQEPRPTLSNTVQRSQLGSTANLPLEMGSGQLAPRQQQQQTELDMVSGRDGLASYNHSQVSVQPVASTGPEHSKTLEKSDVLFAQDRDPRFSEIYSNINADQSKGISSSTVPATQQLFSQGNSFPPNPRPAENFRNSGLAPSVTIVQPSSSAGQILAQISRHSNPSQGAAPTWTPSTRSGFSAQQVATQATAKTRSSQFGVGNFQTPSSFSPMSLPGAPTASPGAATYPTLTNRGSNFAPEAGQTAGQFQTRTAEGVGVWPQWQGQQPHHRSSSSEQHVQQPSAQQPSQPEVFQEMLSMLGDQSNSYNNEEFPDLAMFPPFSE
Sequence of transformed Ah receptor/ARNT complex (P27540 whole entry partner, the tested form may be a part): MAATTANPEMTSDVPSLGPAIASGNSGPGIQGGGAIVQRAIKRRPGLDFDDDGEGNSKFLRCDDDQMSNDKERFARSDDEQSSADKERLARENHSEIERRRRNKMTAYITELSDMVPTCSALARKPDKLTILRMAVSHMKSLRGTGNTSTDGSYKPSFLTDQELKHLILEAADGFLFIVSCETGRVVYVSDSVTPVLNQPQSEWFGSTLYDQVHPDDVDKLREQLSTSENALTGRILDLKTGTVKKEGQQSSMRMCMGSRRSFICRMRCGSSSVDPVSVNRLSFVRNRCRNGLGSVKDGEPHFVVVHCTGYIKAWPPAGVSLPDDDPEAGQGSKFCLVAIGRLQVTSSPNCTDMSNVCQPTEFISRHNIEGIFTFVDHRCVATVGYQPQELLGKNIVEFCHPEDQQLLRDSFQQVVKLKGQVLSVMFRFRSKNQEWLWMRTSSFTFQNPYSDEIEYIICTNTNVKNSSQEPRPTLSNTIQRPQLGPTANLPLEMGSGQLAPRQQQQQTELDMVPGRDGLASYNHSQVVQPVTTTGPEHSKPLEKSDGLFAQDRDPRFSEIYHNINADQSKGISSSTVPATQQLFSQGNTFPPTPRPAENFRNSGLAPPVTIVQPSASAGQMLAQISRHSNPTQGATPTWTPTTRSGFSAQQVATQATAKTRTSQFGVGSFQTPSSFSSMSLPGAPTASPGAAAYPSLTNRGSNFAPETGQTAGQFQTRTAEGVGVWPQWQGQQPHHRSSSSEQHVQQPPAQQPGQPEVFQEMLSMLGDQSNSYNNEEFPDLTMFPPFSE
Description: Male Hartley guinea pigs weighing 300-350 g were obtained from Cornell Research Animal Resources, Cornell University, Ithaca, N.Y. Guinea pigs were anaesthetized and killed with carbon dioxide. Livers were perfused in situ with 100 mL ice-cold perfusion buffer, excised, trimmed of connective tissue, poorly perfused liver and gall bladder and weighed. The liver was minced and five mL of ice-cold HEDG per gram liver were added and the whole homogenized in a 50 mL homogenizer with teflon pestle using at 200 rpm for a total of seven strokes. Crude homogenate was centrifuged at 12,500 RPM in 50 mL tubes in a JA17 rotor in a Beckman J2-MI preparative centifuge at 4 degrees C for 20 minutes.
For a typical mini-Ah immunoassay utilizing 12 samples, 5 mL of Transformed Ah Receptor Affinity Gel slurry described above was pipeted into a 50 mL conical tube. The slurry was washed with 40 mL HEDG and centifuged at 1000 g for 5 min, the supernatant withdrawn and discarded, the pellet washed with 40 mL HEDG, and centrifuged again. After the second centrifugation all but 5 mL of supernatant was withdrawn and the gel thus resuspended in the original volume. 10 mL guinea pig hepatic cytosol was thawed. The thawed cytosol was pooled and then divided into two 5 mL groups and treated with either 5 uL DMSO or 5 uL 10 uM TCDD in DMSO.
Assembly of transformation mixture:In the preferred embodiment of the mini-Ah immunoassay, each sample was composed of one 1.5 mL microfuge tube with the following sequential additions: 90 uL 4 M NaCl/HEDG, 400 uL Transformed Ah Receptor Affinity Gel slurry and 800 uL cytosol (treated with DMSO or TCDD as described above). The three components described above are the minimum components added at that step of the mini-Ah immunoassay. Any additional materials, such as ARNT, anti-ARNT and anti-Rabbit/alkaline phosphatase conjugate, were sometimes also added at this time as described in the specific examples. After assembly of the samples, the tubes were capped and the samples incubated at room temperature for 2 hours with gentle rocking to allow transformation of the Ah receptor to take place, interaction of transformed Ah receptor and ARNT, and binding of the transformed Ah receptor as a heteromer to the DRE oligonucleotide contained on the Transformed Ah Receptor Affinity Gel.
Immunoprobing of transformed Ah receptor: The nitrocellulose membrane was then removed from the ELIFA apparatus, rinsed briefly with water, and placed in 20 mL blocker containing test antibody. All antibodies were incubated with the nitrocellulose membrane for one hour at room temperature. When the test antibody was anti-Ah receptor/alkaine phosphatase conjugate, 100 uL anti-Ah receptor/alkaline phosphatase conjugate (1:200), per 20 mL blocker was used. When anti-ARNT was added to the transformation mixture, anti-Rabbit/alkaline phosphatase conjugate (Sigma, St. Louis, Mo.) diluted 1:1000 (20 uL to 20 mL blocker) was used to probe the membrane. When ARNT, anti-ARNT and anti-Rabbit or anti-ARNT and anti-Rabbit was added to the transformation mixture, the Immunoprobing step was eliminated.
Immunodetection and densitometry: In all cases the nitrocellulose membrane was rinsed prior to immunodetection 3 times for 5 min each with 100 mL TBST, briefly washed in AP development buffer and developed in freshly made BCIP/NBT developer for 5 min, whereupon the color reaction was stopped by washing the membrane in water.
Quantitative data were obtained by scanning the dried membrane in a Microtek 600ZS scanner in gray scale, 300 dpi, 0% brightness, 0% contrast. Densitometric measurements of the dot-blots were made using ScanAnalysis software (Biosoft, Cambridge U.K.).
Cytosol and DRE affinity gel are prepared as described above. Cytosol is dosed with 1:1000 v/v DMSO (-) or 1:1000 v/v 10 uM 2,3,7,8-tetrachlorodibenzo-p-dioxin in DMSO (+).
Immunoprobing of transformed Ah receptor is as described above with the following probes. […]

[3] = Example 3, 220 ng anti-ARNT spike
[4] = Example 3, 660 ng anti-ARNT spike
[5] = Example 4, ARNT/anti-ARNT/anti-rabbit
[6] = Example 4, anti-ARNT/anti-rabbit, no ARNT added
[7] = Example 4, codes 1-4 (ARNT 2 ug, anti-ARNT 2 uL)

Clc1cc2c(cc1Cl)Oc1cc(Cl)c(Cl)cc1O2 [TCDD, 2,3,7,8-tetrachlorodibenzo-p-dioxin]
TCDD-dependent peak, fractions [1]: 18-28 fractions | density, difference TCDD treated (+) minus DMSO treated (-) [2, 3]: 185901 | density, average ([2]; Example 3, 220 ng anti-ARNT spike, average of two replicates): 205498 | density [2, 3]: 191233 and 219762 | density, difference TCDD treated (+) minus DMSO treated (-) [2, 4]: 189840 | density, average ([2]; Example 3, 660 ng anti-ARNT spike, average of two replicates): 261285 | density [2, 4]: 231412 and 291157 | density, difference [2, 5]: 76074 | density ([2]; Example 4, ARNT/anti-ARNT/anti-rabbit in mixture): 85215 and 80175 | density, average [2, 5]: 82695 | density, difference [2, 6]: 33501 | density [2, 6]: 36309 | density, average ([2]; Example 4, anti-ARNT/anti-rabbit, no ARNT added, second replicate lost): 36309 | density, difference [2, 7]: 235535 | density, average [2, 7]: 244132 | density ([2]; Example 4, codes 1-4 (ARNT 2 ug, anti-ARNT 2 uL; printed Normal)): 233321 and 254942
